Molecules are shown by their SMILES.

Data set [1] deals with LTC4. Kind of data set: LTC4 antagonism in isolated guinea-pig trachea, Test method (i) (Table 2). To be noted: Cavia porcellus, 5 min, read-out: Antagonism (%). It counts as cell-based. The procedure:
(§1) (i) LTC4 and LTD4 antagonisms in guinea-pig trachea
(§2) Antagonisms for LTC4 and LTD4 were determined in isolated guinea-pig trachea prepared as spiral strip. Tracheal preparations were suspended under 1 g tension in 10 ml organ baths and they were incubated for 1 hr prior to use. Contractile responses to LTC4 (2×10^-8 g/ml) and LTD4 (2×10^-8 g/ml) were obtained after the maximal response to histamine (10^-4 M). Test compounds dissolved in 100% dimethyl sulfoxide were added to the organ baths (final concentration of 10^-5 g/ml or 10^-6 g/ml) 5 min prior to LTC4 and LTD4 addition, and then contractile responses to LTC4 and LTD4 were compared with those of control which was obtained from a paired trachea in the absence of test compounds. LTC4 - and LTD4 -induced contractions were expressed as a percentage of the maximal response to histamine. The antagonism was determined as follows:
(§3) Antagonism (%)=(1.0-% contraction in test/% contraction in […]

Data set [2] concerns LTC4. Kind of data set: Antagonism in isolated guinea-pig trachea, Test method (i) (Table 3, given as LTC4 antagonism). It counts as cell-based. To be noted: Cavia porcellus, 5 min, test compound 10^-5 g/ml, given as LTC4 antagonisms. The procedure, abridged:
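Spiral strips of guinea-pig trachea under 1 g tension, contracted by LTC4 (2×10^-8 g/ml) after maximal histamine (10^-4 M) response. Compounds added at 10^-5 or 10^-6 g/ml final 5 min beforehand; contraction expressed as % histamine maximum and antagonism % calculated against paired untreated trachea.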

Data set [3] concerns LTD4. Kind of data set: LTD4 antagonism in isolated guinea-pig trachea, Test method (i) (Table 4, values with asterisk). It counts as cell-based. To be noted: Cavia porcellus, 5 min, test compound 10^-6 g/ml, 5 min prior. The procedure:
as §1, §2, §3

Data set [4] concerns LTD4. Description: LTD4 antagonism in isolated guinea-pig trachea with indomethacin, Test method (ii) (Table 4). It counts as cell-based. To be noted: Cavia porcellus, 0.5 h, LTD4 2×10^-8 g/ml, test compound 10^-6 g/ml, 30 min prior, 5 μmol indomethacin.
For data set [5], the system named is anaphylactic bronchoconstriction in passively sensitized guinea-pig. Description: Effect on anaphylactic bronchoconstriction in passively sensitized guinea-pig. It counts as in vivo. To be noted: 2 mg/kg i.v. The procedure:
(iii) Effect on anaphylactic bronchoconstriction in passively sensitized guinea-pig
Male guinea-pigs (350-450 g) were passively sensitized with intravenous (i.v.) injection of 0.125 ml rabbit anti-EA (egg albumin) serum (Cappel Laboratories) 1 day preceding the experiment. […] Sensitized guinea-pigs were anaesthetized with intraperitoneal injection of urethane (1.5 g/kg). The right jugular vein was cannulated for the administration of the all agents and trachea was cannulated to record total pulmonary resistance. Guinea-pigs were artificially ventilated by a small animal respirator (Shinano, Model SN-480-7) set at a stroke volume of 5 ml and a rate of 50 breaths per min. […] The increase in air overflow volume was expressed as a percentage of the maximum bronchoconstriction obtained by clamping off the trachea. Following surgical preparation, the animals were pretreated with indomethacin (1.0 mg/kg, 10 min), pyrilamine (2 mg/kg, 6 min) and propranolol (0.1 mg/kg, 5 min) prior to the EA challenge (0.1 or 10 mg/kg). All test compounds, 2 mg/kg in 3% Tween 80 or 3% PEG-400, were administered 1 min before the EA challenge. Inhibition (%) of bronchoconstriction was determined as follows: Inhibition (%)=(1.0%-maximum bronchoconstriction in test/% maximum bronchoconstriction in control)×100. The maximum bronchoconstriction was obtained within 20 min after the EA challenge.
In the Table, the dose of EA was 10 mg/kg, and each compound was dissolved or suspended in 3% Tween 80.
The dose of EA was 0.1 mg/kg.

The test system of another data set is ddY strain male mice. Description: Acute toxicity test, Test method-(2), intraperitoneal. It counts as in vivo. To be noted: 7 days. The procedure: The lethal ratio was determined in ddY strain male mice (4 weeks old) at 7 days after the intraperitoneal injection of test compounds.
The mark [6] stands for this setting: Table 5-(1), EA 10 mg/kg, 3% Tween 80.

Take `CCCc1c(OCC(O)COc2ccc3c(=O)cc(C(=O)O)oc3c2CCC)ccc(C(C)=O)c1O` (centres unmarked) [FPL-55712, reference compound]: the inhibition at 10 µg/mL with LTC4 [1] is 100%; in the data set on LTC4 [2], 97%. Moreover, the inhibition at 1 µg/mL in the data set on LTD4 [3] worked out at 76%; in the data set with LTD4 [4], 94%. In addition, the “Inhibition (%)” value stood at 27% in data set [5] (setting [6]) and 60% in data set [5] (Table 5-(2), EA 0.1 mg/kg, Tween 80).
Consider `CCCc1cc(C(=O)OC)ccc1OCCCNc1cn[nH]c(=O)c1Cl` [Compound No. 4, 4-Chloro-5-[3-(2-n-propyl-4-methoxycarbonylphenoxy)propylamino]-3(2H)pyridazinone], for which the inhibition at 10 µg/mL with LTC4 [1] (LTC4 2×10^-8 g/ml, test compound 10^-5 g/ml) is 99%; in the data set with LTC4 [2], 85%. Further, the “Inhibition (%)” value in data set [5] (setting [6]) came out at 27%. The “Lethal ratio (Death number/Experimental number)” value in the data set on ddY strain male mice (200 mg/kg intraperitoneal) is on record as 0/2; in the data set on ddY strain male mice (400 mg/kg intraperitoneal), 0/1.

For the origin of these results see patent US4783462A, “3(2H)pyridazinone, and anti-allergic agent containing it” (Nissan Chemical Industries Ltd., priority 1985, dated 1988).
